Measurements reported in patent US8524702B2, “Substituted benzoazepines as toll-like receptor modulators” (VentiRx Pharmaceuticals, Inc., priority 2009, dated 2013).

Assays:
Format in all cases: cell-based
TLR8 [1] = biological target: T1, TLR8 (Homo sapiens, UniProt Q9NR97); assay: PBMC assay for TLR8 (TNFα in supernatants by ELISA); set-up: Peripheral blood mononuclear cells (PBMCs) from human blood were isolated; endogenous in cells; host or cells: human PBMCs; settings: human PBMCs incubated with compound overnight, MC50 = concentration at which 50% of the maximum induction is seen
T1 sequence (Q9NR97 27-1041): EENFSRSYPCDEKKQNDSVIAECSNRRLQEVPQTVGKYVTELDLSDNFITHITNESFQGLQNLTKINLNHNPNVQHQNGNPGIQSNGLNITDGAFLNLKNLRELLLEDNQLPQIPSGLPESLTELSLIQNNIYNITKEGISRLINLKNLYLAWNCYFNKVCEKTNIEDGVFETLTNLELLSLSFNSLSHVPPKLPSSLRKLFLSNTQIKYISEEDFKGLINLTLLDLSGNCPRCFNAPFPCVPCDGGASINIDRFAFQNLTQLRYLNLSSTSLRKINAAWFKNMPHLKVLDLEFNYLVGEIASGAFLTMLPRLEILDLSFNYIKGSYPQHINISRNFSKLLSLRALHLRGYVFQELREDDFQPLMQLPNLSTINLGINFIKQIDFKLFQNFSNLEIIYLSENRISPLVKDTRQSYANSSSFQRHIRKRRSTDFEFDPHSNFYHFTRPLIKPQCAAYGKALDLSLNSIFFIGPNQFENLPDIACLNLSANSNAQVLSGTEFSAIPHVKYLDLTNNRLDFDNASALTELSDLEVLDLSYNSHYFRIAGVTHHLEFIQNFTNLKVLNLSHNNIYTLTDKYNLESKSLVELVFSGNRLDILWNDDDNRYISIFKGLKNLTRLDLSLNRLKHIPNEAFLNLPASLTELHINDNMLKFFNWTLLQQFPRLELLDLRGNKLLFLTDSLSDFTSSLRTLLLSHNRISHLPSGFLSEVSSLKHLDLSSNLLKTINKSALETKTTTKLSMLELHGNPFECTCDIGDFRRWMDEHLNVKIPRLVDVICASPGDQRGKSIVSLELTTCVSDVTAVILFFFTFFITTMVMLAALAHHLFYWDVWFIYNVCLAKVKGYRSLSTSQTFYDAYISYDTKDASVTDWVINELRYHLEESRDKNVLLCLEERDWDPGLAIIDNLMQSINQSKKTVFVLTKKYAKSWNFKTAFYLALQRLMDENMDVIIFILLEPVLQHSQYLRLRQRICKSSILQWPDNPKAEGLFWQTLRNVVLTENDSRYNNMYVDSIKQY
How it was run: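 Human PBMCs were incubated overnight with compound. TNFα (TLR8) and IFNα (TLR7) in supernatants were quantified by ELISA. MC50 values are reported in order-of-magnitude bins (nM).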

TLR8 [2] = biological target: T1, TLR8; assay: TLR8 activity, MC50 values (procedure only by reference to Gorden et al. and Zhu et al.); settings: assay format not given
Text: (§1) Activity of the compounds can be assessed according to procedures described in, e.g., Gorden et al., Journal of Immunology 177, pp. 8164-8170 (2006) and Zhu et al., Molecular Immunology, vol. 45 (11), pp. 3238-3242 (2008).
MC50 values for TLR8 activity are, for example, as shown below: […]

TLR7 [3] = biological target: T2, TLR7 (Homo sapiens, UniProt Q9NYK1); assay: PBMC assay for TLR7 (IFNα in supernatants by ELISA); set-up: Peripheral blood mononuclear cells (PBMCs) from human blood were isolated; endogenous in cells; host or cells: human PBMCs; settings: human PBMCs incubated with compound overnight, MC50 = concentration at which 50% of the maximum induction is seen
T2 sequence (Q9NYK1 27-1049): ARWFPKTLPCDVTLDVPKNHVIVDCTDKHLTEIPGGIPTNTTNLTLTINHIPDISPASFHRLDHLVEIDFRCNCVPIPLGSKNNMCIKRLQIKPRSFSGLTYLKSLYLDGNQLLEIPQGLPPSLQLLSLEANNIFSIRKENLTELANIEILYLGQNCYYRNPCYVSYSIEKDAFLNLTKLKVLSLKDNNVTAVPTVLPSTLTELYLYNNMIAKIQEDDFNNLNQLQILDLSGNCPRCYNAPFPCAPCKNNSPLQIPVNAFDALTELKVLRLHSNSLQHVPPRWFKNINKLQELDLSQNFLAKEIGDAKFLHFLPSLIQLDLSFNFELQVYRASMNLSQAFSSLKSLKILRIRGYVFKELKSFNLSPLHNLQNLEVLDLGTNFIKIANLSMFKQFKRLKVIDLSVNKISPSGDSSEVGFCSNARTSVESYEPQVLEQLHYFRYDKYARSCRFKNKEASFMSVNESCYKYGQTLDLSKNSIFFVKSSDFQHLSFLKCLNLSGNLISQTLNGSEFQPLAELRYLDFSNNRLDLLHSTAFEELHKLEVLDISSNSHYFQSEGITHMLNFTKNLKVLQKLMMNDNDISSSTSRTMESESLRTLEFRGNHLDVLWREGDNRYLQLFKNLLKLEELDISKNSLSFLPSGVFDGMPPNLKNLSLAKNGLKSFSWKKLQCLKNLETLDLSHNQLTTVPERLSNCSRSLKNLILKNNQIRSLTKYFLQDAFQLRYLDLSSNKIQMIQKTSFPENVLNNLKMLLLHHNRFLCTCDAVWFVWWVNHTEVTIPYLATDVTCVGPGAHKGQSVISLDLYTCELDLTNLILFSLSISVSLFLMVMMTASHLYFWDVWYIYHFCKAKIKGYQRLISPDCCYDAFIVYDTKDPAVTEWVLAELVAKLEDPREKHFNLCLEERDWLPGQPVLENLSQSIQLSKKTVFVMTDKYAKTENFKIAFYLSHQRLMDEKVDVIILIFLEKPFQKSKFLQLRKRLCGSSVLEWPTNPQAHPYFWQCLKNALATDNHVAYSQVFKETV
Procedure: Peripheral blood mononuclear cells (PBMCs) from human blood were isolated using BD Vacutainer Cell Preparation Tubes with sodium citrate. Cells were incubated with compound overnight. TLR8 activity was assayed by measuring the amount of TNFα in supernatants by ELISA. TLR7 activity was assayed by measuring the amount of IFNα in supernatants by ELISA (R&D Systems). […] The results of this assay are shown below in Tables 2 and 3.
MC50 numbers are represented as factors of ten, for example, + indicates an MC50 value of ×10^4, or a value in the tens of thousands of nanomolar (nM range); ++ indicates an MC50 value of ×10^3, or a value in the thousands; +++ indicates an MC50 value of ×10^2, or a value in the hundreds; and ++++ indicates an MC50 value of ×10^1 or 10°, or a value in the tens or ones.

TLR7 [4] = biological target: T2, TLR7; assay: TLR7 activity, MC50 values (procedure only by reference to Gorden et al. and Zhu et al.); settings: assay format not given
Text: as §1
MC50 values for TLR7 activity are, for example, as shown below: […]

SMILES | EC50 (TLR8 [1]) | EC50 (TLR8 [2]) | EC50 (TLR7 [3]) | EC50 (TLR7 [4])
CCCN(C[C@@H](C)O)C(=O)C1=Cc2ccc(-c3ccc(C(=O)N4CCCC4)cc3)cc2N=C(N)C1 (single isomer, unassigned) [Compound 106] | 1 to 100 nM | 10 nM | 1000 to 10000 nM | 
CCCN(CCC)C(=O)C1=Cc2ccc(-c3ccc(C(=O)N4CC[C@@H](O)C4)cc3)cc2N=C(N)C1 [Compound 127, (1E,4E)-2-amino-8-(4-((R)-3-hydroxypyrrolidine-1-carbonyl)phenyl)-N,N-dipropyl-3H-benzo[b]azepine-4-carboxamide] | 1 to 100 nM | 4 nM | 1000 to 10000 nM | 
CCCN(CCC)C(=O)C1=Cc2ccc(-c3cncnc3)cc2N=C(N)C1 [Compound 135, (1E,4E)-2-amino-N,N-dipropyl-8-(pyrimidin-5-yl)-3H-benzo[b]azepine-4-carboxamide] | 1 to 100 nM |  | 100 to 1000 nM | 744 nM
CCCN(CC(N)=O)C(=O)C1=Cc2ccc(-c3ccc(C(=O)N4CCCC4)cc3)cc2N=C(N)C1 [Compound 178, (1E,4E)-2-amino-N-(2-amino-2-oxoethyl)-N-propyl-8-(4-(pyrrolidine-1-carbonyl)phenyl)-3H-benzo[b]azepine-4-carboxamide] | 100 to 1000 nM |  | 100 to 1000 nM | 767 nM
CCCN(CCCO)C(=O)C1=Cc2ccc(-c3ccc(C(=O)OCC)cc3)cc2N=C(N)C1 [Compound 190, Ethyl 4-((1E,4E)-2-amino-4-((3-hydroxypropyl)(propyl)carbamoyl)-3H-benzo[b]azepin-8-yl)benzoate] | 100 to 1000 nM | 196 nM | 10000 to 100000 nM | 

The next lines start with the values.

EC50 (TLR8 [1]) | EC50 (TLR8 [2]) | EC50 (TLR7 [3]) | EC50 (TLR7 [4]) | SMILES
100 to 1000 nM | 104 nM | 1000 to 10000 nM |  | CCCN(CCC)C(=O)C1=Cc2ccc(-c3ccc(C(=O)N(C)C)cc3)cc2N=C(N)C1 [Compound 124, (1E,4E)-2-amino-8-(4-(dimethylcarbamoyl)phenyl)-N,N-dipropyl-3H-benzo[b]azepine-4-carboxamide]
100 to 1000 nM | 116 nM |  |  | CCOC(=O)C1=Cc2ccc(-c3ccc(C(=O)N(C)C)cc3)cc2N=C(N)C1 [Compound 154, (1E,4E)-ethyl 2-amino-8-(4-(dimethylcarbamoyl)phenyl)-3H-benzo[b]azepine-4-carboxylate]
